“And” between values parts separate entries of the source, which are not always exact repeats. Equal values may be shown once.
Test system: 349418-098-R tumor spheroid viability
Test: Anticancer human tumor 349418-098-R patient-derived lung adenocarcinoma cell line growth inhibition
Conditions: spheroids with HUVEC and MSC; for viability, T/C: stronger effect = lower value; active = viability on the fitted dose curve at most 10% of control; inactive = the rest
Procedure, shortened: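 Single agents and combinations were tested on spheroids built from tumor cells plus HUVEC and hMSC, at half-log dilutions starting at or near clinical Cmax, else 10 microM; final DMSO 0.25% (v/v).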

[1] = curve of first compound, second compound 1 µM
[2] = curve of first compound, second compound 3.16 µM
[3] = curve of first compound, second compound 10 µM
[4] = curve of first compound, second compound 31.6 µM
[5] = curve of first compound, second compound 100 µM
[6] = second compound 1 µM, first compound 0.00949 µM
[7] = second compound 1 µM, first compound 0.03 µM
[8] = second compound 1 µM, first compound 0.0949 µM
[9] = second compound 1 µM, first compound 0.3 µM
[10] = second compound 1 µM, first compound 0.949 µM
[11] = second compound 1 µM, first compound 3 µM
[12] = second compound 3.16 µM, first compound 0.00949 µM
[13] = second compound 3.16 µM, first compound 0.03 µM
[14] = second compound 3.16 µM, first compound 0.0949 µM
[15] = second compound 3.16 µM, first compound 0.3 µM
[16] = second compound 3.16 µM, first compound 0.949 µM
[17] = second compound 3.16 µM, first compound 3 µM
[18] = second compound 10 µM, first compound 0.00949 µM
[19] = second compound 10 µM, first compound 0.03 µM
[20] = second compound 10 µM, first compound 0.0949 µM
[21] = second compound 10 µM, first compound 0.3 µM
[22] = second compound 10 µM, first compound 0.949 µM
[23] = second compound 10 µM, first compound 3 µM
[24] = second compound 31.6 µM, first compound 0.00949 µM
[25] = second compound 31.6 µM, first compound 0.03 µM
[26] = second compound 31.6 µM, first compound 0.0949 µM
[27] = second compound 31.6 µM, first compound 0.3 µM
[28] = second compound 31.6 µM, first compound 0.949 µM
[29] = second compound 31.6 µM, first compound 3 µM
[30] = second compound 100 µM, first compound 0.00949 µM
[31] = second compound 100 µM, first compound 0.03 µM
[32] = second compound 100 µM, first compound 0.0949 µM
[33] = second compound 100 µM, first compound 0.3 µM
[34] = second compound 100 µM, first compound 0.949 µM
[35] = second compound 100 µM, first compound 3 µM
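Also: spheroids exposed to compound for 7 days before measurement.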
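For viability, T/C in this document: percent of vehicle control viability with 100% = DMSO-treated spheroids.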

[2H]c1nc(C)nc([2H])c1-c1cc(NC[C@@H](C)c2cccc3c(C(=O)NC)ccnc23)ncn1 + Cn1nnc2c(C(N)=O)ncn2c1=O
inactive: viability, T/C (second compound 1 µM, first compound 0.0316 µM) 98.9% | viability, T/C (second compound 1 µM, first compound 0.1 µM) 103% | viability, T/C (second compound 1 µM, first compound 0.316 µM) 98.7% | viability, T/C (second compound 1 µM, first compound 1 µM) 97.9% | viability, T/C (second compound 1 µM, first compound 3.16 µM) 102% | viability, T/C (second compound 1 µM, first compound 10 µM) 97.3% | viability, T/C (second compound 3.16 µM, first compound 0.0316 µM) 109% | viability, T/C (second compound 3.16 µM, first compound 0.1 µM) 105% | viability, T/C (second compound 3.16 µM, first compound 0.316 µM) 104% | viability, T/C (second compound 3.16 µM, first compound 1 µM) 98.3% | viability, T/C (second compound 3.16 µM, first compound 3.16 µM) 104% | viability, T/C (second compound 3.16 µM, first compound 10 µM) 103% | viability, T/C (second compound 10 µM, first compound 0.0316 µM) 104% | viability, T/C (second compound 10 µM, first compound 0.1 µM) 96.6% | viability, T/C (second compound 10 µM, first compound 0.316 µM) 102% | viability, T/C (second compound 10 µM, first compound 1 µM) 106% | viability, T/C (second compound 10 µM, first compound 3.16 µM) 101% | viability, T/C (second compound 10 µM, first compound 10 µM) 104% | viability, T/C (second compound 31.6 µM, first compound 0.0316 µM) 97.8% | viability, T/C (second compound 31.6 µM, first compound 0.1 µM) 110% | viability, T/C (second compound 31.6 µM, first compound 0.316 µM) 101% | viability, T/C (second compound 31.6 µM, first compound 1 µM) 104% | viability, T/C (second compound 31.6 µM, first compound 3.16 µM) 103% | viability, T/C (second compound 31.6 µM, first compound 10 µM) 104% | viability, T/C (second compound 100 µM, first compound 0.0316 µM) 106% | viability, T/C (second compound 100 µM, first compound 0.1 µM) 109% | viability, T/C (second compound 100 µM, first compound 0.316 µM) 106% | viability, T/C (second compound 100 µM, first compound 1 µM) 106% | viability, T/C (second compound 100 µM, first compound 3.16 µM) 108% | viability, T/C (second compound 100 µM, first compound 10 µM) 110%
> 10000 nM: IC50 [1] | IC50 [2] | IC50 [3] | IC50 [4] | IC50 [5]

CC(C)n1c(=O)n(C)c2cnc3cc(F)c(-c4ccc(OCCCN5CCCCC5)nc4)cc3c21
inactive: viability, T/C (compound 0.0316 µM) 89% and 110% (2×) | viability, T/C (compound 0.1 µM) 97.8% and 97.9% and 106% | viability, T/C (compound 0.316 µM) 94.4% and 93.9% and 108% | viability, T/C (compound 1 µM) 105% and 97.3% and 108% | viability, T/C (compound 3.16 µM) 109% and 102% and 105% | viability, T/C (compound 10 µM) 56.8% and 48.3% and 85.3%
> 10000 nM and 9630 nM: IC50 (curve of compound)

Cc1sc2c(c1C)C(c1ccc(Cl)cc1)=NC(CC(=O)Nc1ccc(O)cc1)c1nnc(C)n1-2 (configuration not stated) + Cn1nnc2c(C(N)=O)ncn2c1=O
129 nM: IC50 [3] | IC50 [5]
active: viability, T/C [10] 1.96% | viability, T/C [11] 0.51% | viability, T/C [16] 1.3% | viability, T/C [17] 0.49% | viability, T/C [21] 10.9% | viability, T/C [22] 1.25% | viability, T/C [23] 0.39% | viability, T/C [28] 1.26% | viability, T/C [29] 0.43% | viability, T/C [33] 9.26% | viability, T/C [34] 0.75% | viability, T/C [35] 0.45%
143 nM: IC50 [1]
133 nM: IC50 [2]
154 nM: IC50 [4]
inactive: viability, T/C [6] 99% | viability, T/C [7] 102% | viability, T/C [8] 67.8% | viability, T/C [9] 16.6% | viability, T/C [12] 99.2% | viability, T/C [13] 105% | viability, T/C [14] 62.7% | viability, T/C [15] 16.5% | viability, T/C [18] 99.2% | viability, T/C [19] 102% | viability, T/C [20] 63.7% | viability, T/C [24] 103% | viability, T/C [25] 103% | viability, T/C [26] 72.1% | viability, T/C [27] 19.3% | viability, T/C [30] 106% | viability, T/C [31] 105% | viability, T/C [32] 64.9%

CNCc1ccc(-c2cc(-c3nc(-c4ccc(S(=O)(=O)C(C)C)cc4)cnc3N)on2)cc1 + Cn1nnc2c(C(N)=O)ncn2c1=O
401 nM: IC50 [3]
382 nM: IC50 [2]
active: viability, T/C [10] 10.3% | viability, T/C [11] 1.84% | viability, T/C [16] 7.59% | viability, T/C [17] 1.85% | viability, T/C [22] 7.44% | viability, T/C [23] 1.34% | viability, T/C [28] 5.84% | viability, T/C [29] 0.96% | viability, T/C [34] 4.72% | viability, T/C [35] 0.67%
275 nM: IC50 [1]
inactive: viability, T/C [6] 103% | viability, T/C [7] 100% | viability, T/C [8] 99.6% | viability, T/C [9] 45.4% | viability, T/C [12] 108% | viability, T/C [13] 101% | viability, T/C [14] 102% | viability, T/C [15] 61.2% | viability, T/C [18] 104% | viability, T/C [19] 103% | viability, T/C [20] 97.9% | viability, T/C [21] 64.5% | viability, T/C [24] 104% | viability, T/C [25] 102% | viability, T/C [26] 99.9% | viability, T/C [27] 42.7% | viability, T/C [30] 104% | viability, T/C [31] 106% | viability, T/C [32] 105% | viability, T/C [33] 27.1%
214 nM: IC50 [5]
260 nM: IC50 [4]

Reference: PubChem BioAssay AID1845197 (Molecular Pharmacology Branch, DTP, NCI, 2023)
